From patent publication US8158621B2, “Methods of treating or preventing autoimmune diseases with 2,4-pyrimidinediamine compounds” (Rigel Pharmaceuticals, Inc., priority 2002, dated 2012)
“And” between values parts separate entries of the source, which are not always exact repeats. Equal entries are not always repeated. Where two headings read alike, the source gives them in different places.

Columns and labels:
[1] = test system: Human Jurkat T-cells (clone N); test: Jurkat T-cell activation (anti-TCR, CD69 upregulation); format: cell-based
Procedure, shortened: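 Readout is CD69 upregulation by flow cytometry (anti-CD69-APC, 20 min at 4 °C) after 20 h anti-TCR (C305, 500 ng/ml) stimulation at 37 °C.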

Primary human B-cells = test: Primary B-cell activation (α-IgM, CD69 upregulation); format: cell-based; settings: read-out: 1° B-Cell CD69 IC50
Procedure: Primary human B-cells were isolated from buffy coat, the white cell layer that forms between the red cells and the […] when anti-coagulated blood is centrifuged, or from fresh blood using CD19-Dynal® beads and a FACS. Buffy coat was obtained from the Stanford Medical School Blood Centre, prepared on the same day by the blood bank, stored and transported cold (with ice). The buffy coat (approx 35 mL) was placed in a 500 mL conical sterile centrifuge pot and cooled on ice, then diluted with cold PBS containing 0.2% BSA (Sigma: A7638) and sodium citrate (0.1%, Sigma: S-5570) (P—B—C) to a total volume of 200 mL and mixed gently. Fresh blood was collected from donors in 10 mL vacutainers containing heparin (1 vacutainer collects approximately 8.5 mL blood). The blood was cooled on ice, transferred into 50 mL falcon tubes (20 mL/tube) or a 500 mL conical sterile centrifuge pot, and diluted with an equal volume P—B—C.
25 mL diluted blood or buffy coat was layered onto 15 mL cold ficoll and placed back on ice. The ficoll layered blood was centrifuged (Beckman GS-6R) for 45 minutes at 2000 rpm, 4° C. to separate the Peripheral Blood Mononuclear Cells (PBMC) from the Red Blood Cells (RBC) and granulocytes. The top aqueous layer was then aspirated until 1 inch above the PBMC layer. The PBMCs were transferred from every 2 ficoll tubes into one clean 50 mL falcon tube (=approx 10 mL/tube). The transferred PBMCs were diluted 5× with icecold PBS with 0.2% BSA (P—B) and centrifuged for 20 min at 1400 rpm and 4° C. The supernatant (this may be cloudy) was then aspirated and the PBMCs resuspended into 25 mL P—B and the cells counted (using a 1:5 dilution) and kept on ice.
The cells were then positively selected using anti-CD 19 antibody coupled to magnetic beads (Dynal®) as per manufacturer's instructions. The approximate required amount of CD19-Dynal® beads (CD19-coated dyna beads M-450 (pabB), Dynal®) was calculated by estimating the number of B-cells as 5% of PBMCs counted and adding approximately10 beads per cell from the bead stock (4×10^8 beads/mL). The CD19-Dynal® beads were washed 2× in P—B in a 5 mL tube using the Dynal® magnet, then added into the suspended PBMCs. This mixture was then passed through the Dynal® magnet and washed several times to separate the bead-bound cells.
After separation, the beads and antibody were removed using Dynal® CD19-DETACHaBEAD® for 45 min at 30° C. Yield is typically 2×10^7 B-cells per buffy coat. B-cells were washed and resuspended as 1E6 cells/mL in RPMI1640+10% FBS+Penicillin/[…]+1 ng/mL IFNα8. Cells were rested overnight at 37° C. and 5% CO2.
The following day, cells were washed and resuspended in RPMI+2.5% FBS to 1×10^6 cells/mL. Cells were then aliquoted into a V-bottom 96-well plate (Corning) at 65 uL cells per well. By robot, 65 uL of a 2× compound was added to the cells with final concentration of DMSO at 0.2%, and incubated for 1 hr at 37° C. Cells were then stimulated with 20 uL 7.5× α-IgM from Jackson laboratories (final 5 ug/mL) for 24 hrs. At day 3, the cells were spun down and stained for CD69 and analyzed by FACS gated on the live cells (by light scatter).
Varied concentrations of compound were compared to solvent only to determine the inhibition of B-cell activation IC50 of each compound.

[2] = Mouse Reverse Passive Arthus reaction (RPA reaction); format: in vivo, C57BL/6 mice; settings: oral, 200 mg/kg
Procedure: In this model system, test compounds are administered at several timepoints prior to administration of Abs and Ags. A solution of rabbit anti-OVA IgG (50 μg in 25 μl/mouse) is injected intradermally, and immediately following is an intravenous injection of chicken egg albumin (20 mg/kg of body weight) in a solution containing 1% Evans blue dye. The degree of edema and hemorrhage is measured in the dorsal skin of C57BL/6 mice using the Evan's Blue dye as an indicator of local tissue damage. Purified polyclonal rabbit IgG is used as a control.
Pretreatment time, in which the test compounds are administered prior to Ab/Ag challenge, depends on the pharmacokinetic (PK) properties of each individual compound. Four hours after induction of Arthus reaction, mice are euthanized, and tissues are harvested for assessment of edema.

[3] = test system: IgE-induced degranulation of tissue mast cells; test: Mouse model of passive cutaneous anaphylaxis (PCA); format: in vivo; settings: positive controls
Procedure: This model provides a direct measure of IgE-induced degranulation of tissue mast cells. In this model, IgE primed animals are exposed to an allergen challenge, and the change in permeability of dermal vasculature that results from histamine release from mast cells is measured by change in the amount of dye leakage into surrounding tissue. Inhibition of mediator release by compounds that modulate mast cell degranulation is easily measured by extracting the dye from the tissue.
In the PCA assay mice are passively sensitized by intradermal injection with anti-dinitrophenol (DNP) IgE antibodies (Day −1). At predetermined times animals are treated with the test agent (Day 0). The modulatory effect of the agent on cutaneous mast cell degranulation is measured following intravenous injection of DNP conjugated to human serum albumin (HSA-DNP), together with Evans blue dye. The resulting cross-linking of the IgE receptor and subsequent mast cell degranulation-induced increase in vascular permeability is determined by measuring the amount of dye extravasation into the tissue. Dye is extracted from the tissue by formamide, and the absorbance of this extract is read at 620 nm.

[4] = test system: cultured human mast cells (CHMC); test: CHMC low cell density ionomycin activation: tryptase assay; format: cell-based; settings: low cell density; read-out: CHMC Ionomycin Tryptase
Syk kinase = target: T1, Syk kinase (Homo sapiens, UniProt P43405); test: Syk kinase biochemical fluorescence polarization assay; settings: isolated Syk kinase, fluorescence polarization, 4 uM ATP
T1 construct: purchased Upstate, Lake Placid NY

[5] = test system: bone marrow derived mast cells (BMMC); test: BMMC high cell density IgE activation: hexosaminidase; format: cell-based, mouse; settings: high cell density; read-out: BMMC anti-IgE Hexos.
Procedure: After sensitizing, cells are counted, pelleted (1000 rpm, 5-10 minutes), and resuspended at 1-3×10^6 cells/ml in MT buffer. Add 100 ul of cell suspension to each well and 100 ul of compound dilutions. The final vehicle concentration is 0.5% DMSO. Incubate at 37° C. (5% CO2) for 1 hour. After 1 hour of compound treatment, stimulate cells with 6× stimulus (60 ng/ml DNP-BSA). Mix wells with the cells and allow plates to incubate at 37° C. (5% CO2) for one hour. After 1 hour incubation, pellet cells (10 minutes, 1000 RPM) and collect 200 ul per well of the supernatant, being careful not to disturb pellet, and transfer to a clean tube or 96-well plate. Place the supernatant plate on ice. During the 4-5 hour step (see next) perform the hexosiminidase assay. Resuspend cell pellet in 240 ul WEI-conditioned media containing 0.5% DMSO and corresponding concentration of compound. Incubate BMMC cells for 4-5 hours at 37° C. (5% CO2). After incubation, pellet cells (1000 RPM, 10 minutes) and collect 225 ul per well and place in −80° C. until ready to perform ELISAS. ELISAS are performed on appropriately diluted samples (determined empirically for each donor cell population so that the sample measurement falls within the standard curve) following the supplier's instructions.
Add 50 uL of BMMC cell supernatant (see above) to the hexoseaminidase substrate, place at 37° C. for 30 minutes and read the plate at 5, 10, 15, and 30 minutes on a spectrophotometer.

[6] = test system: cultured human mast cells (CHMC); test: CHMC low cell density IgE activation: tryptase assay; format: cell-based; settings: low cell density; read-out: CHMC anti-IgE Tryptase
Procedure, shortened: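 Supernatant tryptase activity, assayed with substrate for 30 min at room temperature, served as the degranulation measure. Mast cells (1000-1500 per well depending on donor) sat 1 hr at 37° C in MT before a 30 min anti-IgE challenge at 37° C.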

| IC50 [4] [µM] | IC50 [5] [µM] | SMILES | further results |
| --- | --- | --- | --- |
| > 10 | 4 | CNC(=O)COc1cccc(Nc2ncc(F)c(Nc3ccc(OC(F)(F)F)c(C(=O)N4CCOCC4)c3)n2)c1 [Compound R950411] | – |
| > 10 | 2.4 | Oc1c(Cl)cc(Nc2ncc(F)c(Nc3ccc(OC(F)(F)F)c(Cl)c3)n2)cc1Cl [Compound R927046] | – |
| > 10 | > 10 | CNC(=O)COc1cccc(Nc2ncc(F)c(Nc3ccc(OC(F)(F)F)c(C(=O)NC)c3)n2)c1 [Compound R950407] | – |
| > 10 | > 10 | CNC(=O)COc1cccc(Nc2ncc(F)c(Nc3ccc(OC(F)(F)F)c(C(=O)NCCN)c3)n2)c1 [Compound R950406] | – |
| > 10 | 1.29 | CNC(=O)COc1cccc(Nc2ncc(F)c(Nc3ccc(N4CCOCC4)cc3)n2)c1 [Compound R945367] | – |
| > 10 | > 10 | CNC(=O)COc1cccc(Nc2ncc(F)c(Nc3ccc(OC(F)(F)F)c(C(=O)NC[C@@H](O)CO)c3)n2)c1 [Compound R950410] | – |

The next lines start with the compound.

| SMILES | IC50 [4] [µM] | IC50 [5] [µM] | further results |
| --- | --- | --- | --- |
| CNC(=O)COc1cccc(Nc2ncc(F)c(Nc3ccc4c(c3)NC(=O)C(C)(C)O4)n2)c1 [Compound R940323] | – | – | IC50 [1]: 0.557 µM; IC50 (Primary human B-cells): 0.11 µM; inhibition of edema formation ([2]; 60 minutes prior to challenge): 32.4%; % inhibition to vehicle control Edema Size ± SEM ([2]; pretreatment time 0.5 hrs): 5.5 ± 9.3%; % inhibition to vehicle control Edema Size ± SEM ([2]; pretreatment time 1 hrs): 32.4 ± 13.0% and 32.4%; % inhibition to vehicle control Edema Size ± SEM ([2]; pretreatment time 2 hrs): 26.9 ± 11.2% |
| CN(C)CCOC(c1ccccc1)c1ccccc1 [diphenhydramine, reference compound] | – | – | PCA response [3]: inhibit the PCA response |
| CC(=O)N(C)c1ccc(Nc2ncc(F)c(NC3CC3)n2)cc1 [Compound R945369] | > 10 | 1.27 | IC50 (Syk kinase): 1.85 µM |
| CNC(=O)CCn1ncc2cc(Nc3ncc(F)c(Nc4ccc(Cl)cc4)n3)ccc21 [Compound R935382] | > 10 | 0.2 | – |
| CCOc1ccc(Nc2nc(Nc3ccc4c(c3)OCCO4)ncc2F)cc1 [Compound R926213] | – | – | IC50 ([1]; Homo sapiens, Jurkat): 8.86 µM; IC50 (Primary human B-cells; Homo sapiens, B-cell): 44 µM |
| Fc1cnc(Nc2ccc(OCc3ccccc3)c(Cl)c2)nc1Nc1ccc(OCc2ccccc2)c(Cl)c1 [Compound R926965] | > 10 | > 10 | IC50 [6]: > 10 µM |
| CC1(C)Oc2ccc(Nc3nc(Nc4ccc5cc[nH]c5c4)ncc3F)cc2NC1=O [Compound R926982] | > 10 | – | IC50 (Syk kinase): 0.028 µM; IC50 [6]: 0.12 µM; IC50 (Primary human B-cells): 0.394 µM |
| CCOC(=O)CCn1ncc2cc(Nc3ncc(F)c(Nc4ccc(F)c(F)c4)n3)ccc21 [Compound R935384] | > 10 | > 10 | – |
| COc1cc(Nc2ncc(F)c(Nc3ccc4c(c3)NC(=O)[C@H](C)O4)n2)cc(OC)c1 [Compound R908953] | – | – | IC50 (Syk kinase): 0.017 µM; IC50 (Primary human B-cells): 1.98 µM |
